Experiment: solvent given as SMILES

## O=C1c2ccc(-c3ccc(N(c4ccc(-c5ccccc5)cc4)c4ccc(-c5ccccc5)cc4)cc3)cc2C(=O)c2ccc(-c3ccc(N(c4ccc(-c5ccccc5)cc4)c4ccc(-c5ccccc5)cc4)cc3)cc21
In Cc1ccccc1
  fluorescence lifetime: 11.2 ns
In c1ccc2c(c1)c1ccccc1n2-c1ccc(-c2ccc(-n3c4ccccc4c4ccccc43)cc2)cc1
  fluorescence lifetime: 10.2 ns

## C(=C\N1CCCC1)/c1nc2ccccc2nc1-c1ccccc1
In C1CCCCC1
  fluorescence lifetime: 2.3 ns
In C1CCOC1
  fluorescence lifetime: 8.42 ns
In CC#N
  fluorescence lifetime: 5.28 ns
In CC(C)=O
  fluorescence lifetime: 6.88 ns
In CCO
  fluorescence lifetime: 0.49 ns
In CO
  fluorescence lifetime: 0.15 ns
In CS(C)=O
  fluorescence lifetime: 2.97 ns
In Cc1ccccc1
  fluorescence lifetime: 6.52 ns
In ClCCl
  fluorescence lifetime: 10.2 ns

## CCCCCCCCCCCCCCCCOc1cc(C#Cc2ccc3ccccc3c2-c2c(C#Cc3cc(OCCCCCCCCCCCCCCCC)c(C#Cc4ccc(C=C(C#N)C#N)cc4)cc3OCCCCCCCCCCCCCCCC)ccc3ccccc23)c(OCCCCCCCCCCCCCCCC)cc1C#Cc1ccc(C=C(C#N)C#N)cc1
In Brc1ccccc1
  fluorescence lifetime: 2.8 ns
In C1CCCCC1
  fluorescence lifetime: 2.02 ns
In C1CCOC1
  fluorescence lifetime: 1.25 ns
In C1COCCO1
  fluorescence lifetime: 3.06 ns
In CCCCCC
  fluorescence lifetime: 2.15 ns
In CCCCCCCCO
  fluorescence lifetime: 0.79 ns
In CCCCOCCCC
  fluorescence lifetime: 2.74 ns
In CCOC(C)=O
  fluorescence lifetime: 1.51 ns
In CCOCC
  fluorescence lifetime: 3.29 ns
In Cc1ccccc1
  fluorescence lifetime: 2.59 ns
In ClC(Cl)(Cl)Cl
  fluorescence lifetime: 2.16 ns
In ClC(Cl)Cl
  fluorescence lifetime: 2.35 ns
In ClCCl
  fluorescence lifetime: 0.79 ns

## CC1=CC(C)=[N+]2C1=Cc1ccc(CCC(=O)ON3C(=O)CCC3=O)n1[B-]2(F)F
In CO
  fluorescence lifetime: 5.7 ns

## CC(C)c1ccc2ccc3c(C(C)C)ccc4ccc1c2c43
In CCCCCC
  fluorescence lifetime: 52.9 ns
In CO
  fluorescence lifetime: 85.7 ns
In ClCCl
  fluorescence lifetime: 40.3 ns

## O=S1(=O)c2ccccc2C2(c3cc(-c4ccc(-n5c6ccccc6c6ccccc65)cc4)ccc3-c3ccc(-c4ccc(-n5c6ccccc6c6ccccc65)cc4)cc32)c2ccccc21
In ClCCl
  fluorescence lifetime: 0.9 ns

## COc1ccc(-c2nc3c(c4c2-c2ccc(C#N)cc2CC4)-c2ccc(C#N)cc2CC3)cc1
In CS(C)=O
  fluorescence lifetime: 0.27 ns

## N#Cc1c2ccccc2cc2ccccc12
In C1CCCCC1
  fluorescence lifetime: 12.7 ns
In CO
  fluorescence lifetime: 16 ns

## CC1=CC(C)=[N+]2C1=C(c1ccc(I)cc1)c1c(C)cc(C)n1[B-]2(Oc1ccccc1)Oc1ccccc1
In ClC(Cl)Cl
  fluorescence lifetime: 0.38 ns

## CCCCOC(=O)c1cc(Cl)c2c3c(Cl)cc4c5c(cc(Cl)c(c6c(Oc7ccc(C(=O)OC)cc7)cc(C(=O)OCCCC)c1c26)c53)C(=O)N(c1c(C(C)C)cccc1C(C)C)C4=O
In Cc1ccccc1
  fluorescence lifetime: 6.09 ns

## O=C1c2ccccc2-c2ccc(Nc3nc(Cl)nc(Cl)n3)c3cccc1c23
In CC#N
  fluorescence lifetime: 6.6 ns
In CC(C)=O
  fluorescence lifetime: 4.5 ns
In CC(C)O
  fluorescence lifetime: 7.7 ns
In CCCCOCCCC
  fluorescence lifetime: 0.5 ns
In CCOC(C)=O
  fluorescence lifetime: 1.6 ns
In CCOCC
  fluorescence lifetime: 0.7 ns
In CO
  fluorescence lifetime: 7.6 ns
In Cc1ccccc1
  fluorescence lifetime: 0.9 ns
In Clc1ccccc1
  fluorescence lifetime: 2 ns
In N#Cc1ccccc1
  fluorescence lifetime: 6 ns
In O=C1CCCCC1
  fluorescence lifetime: 3.4 ns

## COc1ccc2c(c1)c1cc(OC)ccc1n2-c1cccc(-n2c3ccc(OC)cc3c3cc(OC)ccc32)c1C#N
In Cc1ccccc1
  fluorescence lifetime: 13 ns
In O=P(c1ccccc1)(c1ccccc1)c1ccccc1Oc1ccccc1P(=O)(c1ccccc1)c1ccccc1
  fluorescence lifetime: 12.8 ns

## Cc1ccc(-c2cc(/C=C/c3ccc(N(c4ccccc4)c4ccccc4)cc3)c(-c3ccc(C)cc3)cc2/C=C/c2ccc(N(c3ccccc3)c3ccccc3)cc2)cc1
In ClCCl
  fluorescence lifetime: 1.34 ns

## CCN(CC)c1ccc2c(c1)oc(=O)c1cc3c(C)nn(-c4ccccc4)c3nc12
In ClCCl
  fluorescence lifetime: 17.1 ns

## COc1c2ccccc2c(OC)c2c1c1ccc(C(F)(F)F)cc1n2C
In C1CCCCC1
  fluorescence lifetime: 26 ns
In CC#N
  fluorescence lifetime: 31.2 ns
In CO
  fluorescence lifetime: 28.6 ns
In ClCCl
  fluorescence lifetime: 25.8 ns

## N#Cc1ccc2cc[nH]c2c1
In C1CCOC1
  fluorescence lifetime: 3.7 ns
In C1COCCO1
  fluorescence lifetime: 3.9 ns
In CC#N
  fluorescence lifetime: 3.8 ns
In CC(C)O
  fluorescence lifetime: 3.7 ns
In CCO
  fluorescence lifetime: 3.7 ns
In CO
  fluorescence lifetime: 3.5 ns
In CS(C)=O
  fluorescence lifetime: 4.3 ns
In NC=O
  fluorescence lifetime: 4.2 ns
In O
  fluorescence lifetime: 0.6 ns
In OCC(F)(F)F
  fluorescence lifetime: 0.8 ns
In [2H]OC([2H])([2H])C(F)(F)F
  fluorescence lifetime: 1.1 ns
In [2H]O[2H]
  fluorescence lifetime: 0.8 ns

## c1cc2ccc3ccc4cc3c2cc1c1ccc2ccc3ccc(cc3c2c1)c1ccc2ccc3ccc4cc3c2c1
In Cc1ccccc1
  fluorescence lifetime: 6.5 ns

Reference: the Deep4Chem optical property database
